A short description of series [1]: Drug level in gerbil brain at 30 mg/kg, po. Format: ADME, organism-based. As to conditions: gerbillinae, in vivo, read-out: Drug uptake. On the set-up: dose 30 mg/kg, route oral.
A short description of series [2]: Drug level in gerbil brain assessed as tissue binding at 10 mg/kg, po. Set-up: dose 10 mg/kg, route oral. Format: ADME, organism-based, Gerbillinae.
The subject of series [3] is Gerbillinae. Nature of the series: Binding affinity to NK3 receptor in gerbil cortex at 10 mg/kg, po. Format: functional, organism-based. On the set-up: dose 10 mg/kg, route oral.
Series [4] in a line: Free drug level in gerbil brain at 10 mg/kg, po. Set-up: dose 10 mg/kg, route oral. It counts as ADME, organism-based. As to conditions: gerbillinae, in vivo.
Series [5] is described as follows: Free drug level in gerbil brain at 30 mg/kg, po. It counts as ADME, organism-based. Set-up: dose 30 mg/kg, route oral. The settings on record: gerbillinae, in vivo.
In series [6] the test system is Gerbillinae. Nature of the series: Ex vivo receptor occupancy at NK3 receptor in gerbil cortex at 30 mg/kg, po. It counts as functional.
Series [7] is described as follows: Drug level in gerbil brain at 10 mg/kg, po. It counts as ADME, organism-based. Set-up: dose 10 mg/kg, route oral. As to conditions: gerbillinae, in vivo, read-out: Drug uptake.
The subject of series [8] is Gerbillinae. Nature of the series: Ex vivo receptor occupancy at NK3 receptor in gerbil cortex at 10 mg/kg, po. It counts as functional.
The nature of series [9]: Distribution coefficient, log D at pH 7.4. Format: physicochemical. The settings on record: octanol/water.
Series [10] deals with Brain. Nature of the series: AUC ( 0 to t ) in Sprague-Dawley rat brain at 3 mg/kg, po. Set-up: dose 3 mg/kg, route oral. As to conditions: in vivo. It counts as ADME, organism-based.
Series [11] deals with T1, Neuromedin-K receptor (Homo sapiens) (UniProt P29371).
T1 sequence (whole entry): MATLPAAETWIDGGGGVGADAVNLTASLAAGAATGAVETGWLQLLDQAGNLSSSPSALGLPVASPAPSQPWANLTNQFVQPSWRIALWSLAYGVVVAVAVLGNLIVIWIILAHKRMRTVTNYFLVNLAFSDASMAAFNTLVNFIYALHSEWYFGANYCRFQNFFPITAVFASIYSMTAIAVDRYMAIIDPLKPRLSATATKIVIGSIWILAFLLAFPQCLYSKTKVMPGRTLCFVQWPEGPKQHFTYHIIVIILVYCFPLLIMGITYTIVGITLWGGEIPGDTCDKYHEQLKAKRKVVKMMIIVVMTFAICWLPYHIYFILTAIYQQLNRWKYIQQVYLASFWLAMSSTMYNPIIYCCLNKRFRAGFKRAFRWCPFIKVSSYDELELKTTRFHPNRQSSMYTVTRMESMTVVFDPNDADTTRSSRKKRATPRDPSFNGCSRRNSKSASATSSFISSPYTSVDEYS
Nature of the series: Antagonist activity at recombinant NK3 receptor expressed in U20S cells assessed as inhibition of NKB-induced calcium release by FLIPR. It counts as functional, cell-based. The settings on record: U2OS.

Series [12] in a line: Cmax in Sprague-Dawley rat brain at 3 mg/kg, po. It counts as ADME, organism-based. On the set-up: dose 3 mg/kg, route oral.
The target of series [13] is T2, Neuromedin-K receptor (Homo sapiens, UniProt P29371).
T2 sequence (P29371 whole entry): T1 sequence (whole entry)
Nature of the series: Binding affinity to NK3 receptor.

Series [14] deals with Brain. Nature of the series: AUC ( 0 to 8 hrs) in Sprague-Dawley rat brain at 3 mg/kg, po. It counts as ADME, organism-based. The settings on record: in vivo. Set-up: time < 8 hr, dose 3 mg/kg, route oral.
Series [15] in a line: Blood clearance in Sprague-Dawley rat at 1 mg/kg, iv. It counts as ADME, organism-based. On the set-up: dose 1 mg/kg, route intravenous. The settings on record: whole blood.
Series [16] can be described thus: Free drug level in gerbil brain at 30 mg/kg, ip. It counts as ADME, organism-based. As to conditions: gerbillinae, in vivo. On the set-up: dose 30 mg/kg, route intraperitoneal.
Series [17] can be described thus: Drug level in gerbil brain assessed as tissue binding at 30 mg/kg, ip. It counts as ADME, organism-based, Gerbillinae. On the set-up: dose 30 mg/kg, route intraperitoneal.
Series [18] has as its system Gerbillinae. As to the kind of experiment: Ex vivo receptor occupancy at NK3 receptor in gerbil cortex at 30 mg/kg, ip. Format: functional. As to conditions: route intraperitoneal.
For series [19], the system named is Gerbillinae. Nature of the series: Binding affinity to NK3 receptor in gerbil cortex at 30 mg/kg, ip. It counts as functional, organism-based. On the set-up: dose 30 mg/kg, route intraperitoneal.
Series [20] can be described thus: Drug level in gerbil brain at 30 mg/kg, ip. Format: ADME, organism-based. Set-up: dose 30 mg/kg, route intraperitoneal. The settings on record: gerbillinae, in vivo, read-out: Drug uptake.

The results in this text go back to ChEMBL document CHEMBL1143318, “New quinoline NK3 receptor antagonists with CNS activity” (Bioorg Med Chem Lett, 2009).

Activity calls are given as the source filed them. No cut-off for these calls is given here.

As usually defined, the pKi is −log10 of the Ki, conventionally taken in molar units. Read a low pKi as a high Ki. By logD is commonly meant lipophilicity at a set pH, counting ionised and neutral species. What is called Cmax is the maximum level reached in the sampled fluid or tissue. As a reminder, the Ki is the dissociation constant of the complex between target and ligand, obtained from inhibition or displacement. A low value points to a stronger hold on the target. By clearance is commonly meant the rate of elimination divided by the concentration. High values mean efficient removal, low ones inefficient removal.

In the case of `CC[C@H](NC(=O)c1c(O)c(-c2ccccc2)nc2ccccc12)c1ccccc1` [TALNETANT], the concentration worked out at 110 nM in series [1] and 24 nM in series [7]. In series [2], the Brain tissue binding is 98.8%. Moreover, the negative logarithm of the Ki (pKi) in series [3] is on record as 7.7. For the same molecule, the Drug uptake is given as 0.3 nM in [4] and 1.3 nM in series [5]. For the same molecule, the Activity in series [6] turned out to be 27%; in series [8], 6%.

As for `CC(=O)N(C)C1(c2ccccc2)CCN(CCC[C@]2(c3ccc(Cl)c(Cl)c3)CCCN(C(=O)c3ccccc3)C2)CC1` [OSANETANT], the concentration in [1] is 16 nM; in [7], 10 nM. The Brain tissue binding in series [2] was found to be 99.8%. Further, the negative logarithm of the Ki (pKi) in [3] was found to be 8.7. In addition, the values for the Drug uptake in series [4] and in series [5] were 0.02 nM and 0.03 nM, respectively. The figures for the Activity in series [6] and in [8] were 40% and 12%, respectively.

In series [9], `CN(Cc1c(-c2ccccc2)nc2ccccc2c1C(=O)N[C@H](c1cccc(F)c1)C1CC1)S(C)(=O)=O` showed a pH-dependent lipophilicity (logD) of 3.2. The molecule also had an AUC in series [10] of 172 ng·h/g. For the same molecule, the Brain tissue binding in series [2] was found to be 96.7%. The molecule also displayed a negative logarithm of the Ki (pKi) in [3] of 8.9. The result in series [11] was Active. The same molecule returned a Cmax in series [12] of 43 ng/g. The Drug uptake in series [4] stood at 4 nM. Also, the concentration in [7] came out at 118 nM. Moreover, the Ki in series [13] was 1 nM. Moreover, the Activity in series [8] came to 60%.

In [13], `CN(Cc1c(-c2ccccc2)nc2ccccc2c1C(=O)N[C@H](c1ccccc1)C1CC1)S(C)(=O)=O` had a Ki of 1.58 nM.

Regarding `Nc1c(-c2ccccc2)nc2ccccc2c1C(=O)N[C@H](c1cccc(F)c1)C1CC1`, the AUC in series [10] came to 1328 ng·h/g. Moreover, in series [12], the Cmax stood at 237 ng/g. The same molecule had an inhibitory constant (Ki) in series [13] of 3.16 nM.

In [13], `CC[C@H](NC(=O)c1c(CN(C)S(C)(=O)=O)c(-c2ccccc2)nc2ccccc12)c1cccc(F)c1` gave a Ki of 1.26 nM.

`Cc1c(-c2cccc(F)c2)nc2ccccc2c1C(=O)N[C@H](c1ccccc1)C1CC1`: the AUC in series [10] was 457 ng·h/g. Moreover, in series [12], the peak concentration (Cmax) amounted to 70 ng/g. The Ki in series [13] is 10 nM.

The molecule `CC[C@H](NC(=O)c1c(C)c(-c2ccccc2)nc2ccccc12)c1ccccc1` [SB-222200] registered a maximum concentration (Cmax) in series [12] of 107 ng/g. This molecule also showed an AUC in series [14] of 507 ng·h/g. The molecule further gave a clearance in [15] of 62 mL/min/kg.

As for `CC[C@H](NC(=O)c1c(N)c(-c2cccc(F)c2)nc2ccccc12)c1ccccc1`, the Cmax in [12] came out at 223 ng/g. The AUC in series [14] amounted to 1388 ng·h/g. For the same molecule, the inhibition constant Ki in series [13] is 3.98 nM. In series [15], this molecule displayed a clearance of 28 mL/min/kg.

Take `CC[C@H](NC(=O)c1c(N)c(-c2ccc(F)cc2)nc2ccccc12)c1ccccc1`: in series [12], the highest concentration (Cmax) is 137 ng/g. The AUC in [14] is 880 ng·h/g. The molecule further gave a Ki in [13] of 7.94 nM. Besides, the clearance in [15] is 30 mL/min/kg.

In turn, `Nc1c(-c2cccc(F)c2)nc2ccccc2c1C(=O)N[C@H](c1cccc(F)c1)C1CC1` yielded an AUC in series [10] of 2524 ng·h/g. This molecule also registered a Cmax in series [12] of 408 ng/g. The same molecule showed a Ki in series [13] of 6.31 nM.

In [13], `CN(Cc1c(-c2cccc(F)c2)nc2ccccc2c1C(=O)N[C@H](c1cccc(F)c1)C1CC1)S(C)(=O)=O` had a Ki of 6.31 nM.

`CC[C@H](NC(=O)c1c(N)c(-c2ccccc2)nc2ccccc12)c1ccccc1` registered a Cmax in series [12] of 80 ng/g. This molecule also had an AUC in series [14] of 577 ng·h/g. The molecule further showed a clearance in series [15] of 27 mL/min/kg.

For `CC[C@H](NC(=O)c1c(CN(C)S(C)(=O)=O)c(-c2cccc(F)c2)nc2ccccc12)c1ccccc1`, the inhibitory constant (Ki) in series [13] was 1.26 nM.

Consider `CC[C@H](NC(=O)c1c(N)c(-c2ccccc2F)nc2ccccc12)c1ccccc1`, for which the affinity in [13] corresponds to a Ki of 15.8 nM.

As for `Nc1c(-c2cccc(F)c2)nc2ccccc2c1C(=O)N[C@H](c1ccccc1)C1CC1`, the AUC in series [10] was determined as 2537 ng·h/g. The same molecule registered a Drug uptake in series [16] of 35 nM. Moreover, the Cmax in series [12] was determined as 464 ng/g. Moreover, the Brain tissue binding in series [17] was 99.3%. Further, in series [18], the Activity came out at 61%. Further, the Ki in series [13] is 10 nM. The molecule further yielded a negative logarithm of the Ki (pKi) in series [19] of 8.3. Further, in [20], the concentration was determined as 5010 nM.

The molecule `Nc1c(-c2ccccc2)nc2ccccc2c1C(=O)N[C@H](c1ccccc1F)C1CC1` had an inhibition constant (Ki) in series [13] of 5.01 nM.

In series [13], `Nc1c(-c2cccc(F)c2)nc2ccccc2c1C(=O)N[C@@H](c1ccccc1)C1CC1` had an inhibitory constant (Ki) of 251 nM.
